# From patent US9284303B2, “Benzimidazole cannabinoid agonists bearing a substituted heterocyclic group” (priority 2006, dated 2016)
# pEC50: −log10 of the molar value. Where two headings read alike, the source gives them in different places.
# Experiments:
# [1] = biological target: T1, human CB1 (hCB1) receptor (Homo sapiens, UniProt P21554); assay: Inhibition of forskolin-activated cAMP production upon activation of hCB1 (HTRF), CHO-K1 cells; format: cell-based
# T1 construct: expressed in transfected cells; host or cells: CHO-K1
# T1 sequence (P21554 whole entry): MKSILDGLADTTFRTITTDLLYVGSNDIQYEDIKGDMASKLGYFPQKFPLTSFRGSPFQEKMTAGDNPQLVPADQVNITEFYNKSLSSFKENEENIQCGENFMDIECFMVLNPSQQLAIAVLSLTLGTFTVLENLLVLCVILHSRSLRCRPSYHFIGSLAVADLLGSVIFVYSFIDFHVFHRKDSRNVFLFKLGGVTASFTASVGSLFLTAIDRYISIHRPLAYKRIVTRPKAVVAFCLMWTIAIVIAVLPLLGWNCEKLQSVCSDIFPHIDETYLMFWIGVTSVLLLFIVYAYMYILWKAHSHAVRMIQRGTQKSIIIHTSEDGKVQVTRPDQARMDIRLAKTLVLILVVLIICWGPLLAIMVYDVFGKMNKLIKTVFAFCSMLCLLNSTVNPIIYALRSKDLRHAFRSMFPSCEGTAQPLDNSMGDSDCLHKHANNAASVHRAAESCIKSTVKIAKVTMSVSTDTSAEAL
# Protocol: (§1) Functional activity of the test compounds was assessed by measuring their potency to inhibit forskolin-activated cAMP production upon activation of the human CB1 (hCB1) or human CB2 (hCB2) receptor through homogenous time resolved fluorescence (HTRF) assays.
# CHO-K1 cells stably transfected with either hCB1 or hCB2 were grown up to 80-90% confluence in T175 Falcon flasks in DMEM/NUT MIX F-12 culture medium complemented with 2% Solution A (5.10^6 IU/l penicillin G, 5 g/l streptomycin sulphate, 5.5 g/l pyruvate, 14.6 g/l L-glutamine, 1M NaOH) and 10% foetal calf serum. Before the experiments, medium was removed, cells were washed with PBS/EDTA (140 mM NaCl, 1 mM Naz-EDTA, 8 mM Na2HPO4.2H2O, 8.5 mM KH2PO4, 2.7 mM KCl, 21 mM glucose), resuspended in stimulation buffer (HBSS 1x, IBMX 1 mM, Hepes 5 mM, MgCl2 10 mM, BSA 0.1%, pH 7.4). Cells were diluted to a concentration of 8.10^5 cell/ml for hCB1 experiments and 10^6 cells/ml for hCB2 experiments. Assays were performed using the cAMP Dynamic HTRF kit (CIS bio international, France) according to the recommendations of the manufacturer.
# For CB1, each well of a 96 flat bottom black polystyrene assay plate (Costar) was filled with 25 μl stimulation buffer containing 6 μM forskolin and either test compound (in 2% DMSO), 2% DMSO or 2 μM CP55490 (in 2% DMSO). Then, 25 μl of the diluted cells was added (20,000 cells/well). After 30 minutes incubation in dark at room temperature, 25 μl cAMP-XL665 and 25 μl anti-cAMP cryptate (both at a final dilution of 1/80) was added to the cells.
# After equilibration of the reaction mixtures for 1 to 24 hours in dark at room temperature, fluorescence was measured at 665 nm and 620 nm using a Discovery microplate fluorescence counter (Perkin Elmer), and the signal ratio of 665 nm/620 nm was calculated. The signal ratios of the test compounds were expressed relative to the signal ratios of the DMSO control (maximal signal ratio, no inhibition of cAMP) and CP55490 or WIN55212-2 for hCB1 and hCB2, respectively (minimal signal ratio, maximal inhibition of cAMP). From the dose response curves generated for each test compound, the dose at which 50% of the maximal inhibition of cAMP level is observed (EC50, expressed in the Tables as pEC50=−log(EC50) values) and the level of inhibition reached with 10 μM of the test compound compared to CP55490 (for hCB1) or WIN55212-2 (for hCB2) was calculated.
# [2] = biological target: T2, human CB2 (hCB2) receptor (Homo sapiens, UniProt P34972); assay: Inhibition of forskolin-activated cAMP production upon activation of hCB2 (HTRF), CHO-K1 cells; format: cell-based; details: for ratio CB2 agonism over CB1 agonism: Table C-1, selectivity hCB2 over hCB1; for EC50: hCB2-CHO-K1 cells, read-out: CB2 pEC50 (converted); for EC50 / pEC50: forskolin-activated cAMP, pEC50=-log(EC50); for pEC50: CB2 pEC50, hCB2-CHO-K1 cells; for ratio CB2 over CB1 agonism: Table C-3, comparison of art compounds A to E with compounds of the invention
# T2 construct: expressed in transfected cells; host or cells: CHO-K1
# T2 sequence (P34972 whole entry): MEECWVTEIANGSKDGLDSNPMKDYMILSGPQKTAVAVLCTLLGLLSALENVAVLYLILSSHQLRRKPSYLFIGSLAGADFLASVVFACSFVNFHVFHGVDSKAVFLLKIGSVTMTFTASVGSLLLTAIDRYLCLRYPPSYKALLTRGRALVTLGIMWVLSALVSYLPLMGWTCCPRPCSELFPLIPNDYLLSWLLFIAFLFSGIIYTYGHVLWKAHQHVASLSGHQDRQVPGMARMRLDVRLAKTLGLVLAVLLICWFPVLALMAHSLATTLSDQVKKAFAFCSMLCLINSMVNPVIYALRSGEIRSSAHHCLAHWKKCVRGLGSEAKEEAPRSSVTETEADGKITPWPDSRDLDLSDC
# Protocol: as §1
# Before the experiments, medium was removed, cells were washed with PBS/EDTA (140 mM NaCl, 1 mM Naz-EDTA, 8 mM Na2HPO4.2H2O, 8.5 mM KH2PO4, 2.7 mM KCl, 21 mM glucose), resuspended in stimulation buffer (HBSS 1x, IBMX 1 mM, Hepes 5 mM, MgCl2 10 mM, BSA 0.1%, pH 7.4). Cells were diluted to a concentration of 8.10^5 cell/ml for hCB1 experiments and 10^6 cells/ml for hCB2 experiments. Assays were performed using the cAMP Dynamic HTRF kit (CIS bio international, France) according to the recommendations of the manufacturer.
# Then, 20 μl of the diluted hCB2-CHO-K1 cells was added (20,000 cells/well). After 30 minutes incubation in dark at room temperature, 10 μl cAMP-XL665 and 10 μl anti-cAMP cryptate (both at a final dilution of 1/100) was added to the cells.
# [3] = CB1 pEC50, hCB1-CHO-K1 cells, forskolin-activated cAMP, pEC50=-log(EC50)
Structure (SMILES),"pEC50 [1, 3]",ratio CB2 agonism over CB1 agonism [2],EC50 [2],also measured
CCCC(C)Cn1c(C(C)(C)C)nc2cc(S(=O)(=O)c3ccnc(F)c3)ccc21 (stereo not drawn) [Co. No. 148],< 5.00,>38905,0.257 nM,
CC(C)(C)c1nc2cc(S(=O)(=O)c3ccc(OCC(F)(F)F)nc3)ccc2n1CC1CCOCC1 [Co. No. 108],< 5.00,>3890,2.57 nM,
C=Cc1cc(S(=O)(=O)c2ccc3c(c2)nc(C(C)(C)C)n3CC2CCOCC2)ccn1 [Co. No. 142],5.87,1413,0.955 nM,
COCCCc1cc(S(=O)(=O)c2ccc3c(c2)nc(C(C)(C)C)n3CC2CCOCC2)cc[n+]1[O-] [Co. No. 155],,,,pEC50 [1]: < 5.00; pEC50 [2]: 8.60
COC(=O)c1ccc(S(=O)(=O)c2ccc3c(c2)nc(C(C)(C)C)n3CC2CCCCC2)nc1 [Co. No. 35],7.49,79,0.407 nM,
CC(C)(C)OC(=O)NCCCOc1cc(S(=O)(=O)c2ccc3c(c2)nc(C(C)(C)C)n3CC2CCOCC2)ccn1 [Co. No. 130],< 5.00,>4315,2.29 nM,
COc1ccc(S(=O)(=O)c2ccc3c(c2)nc(C(C)(C)C)n3CC2CCOCC2)cn1 [Co. No. 54],6.91,,0.933 nM,ratio CB2 agonism over CB1 agonism ([2]; listed as 54): 133
CC(C)(C)c1nc2cc(S(=O)(=O)c3ccnc(F)c3)ccc2n1CC1CCC1 [Co. No. 136],< 5.00,>22734,0.437 nM,
"CC(C)(C)c1nc2cc(S(=O)(=O)c3ccccn3)ccc2n1CC1CCOCC1 [Co. No. C, reference compound]",,,,ratio CB2 over CB1 agonism [2]: 36
Cc1[nH][n+]([O-])cc1[S+]([O-])c1ccc2c(c1)nc(C(C)(C)C)n2CC1CCOCC1 (stereo not drawn) [Co. No. 137],6.11,,1.12 nM,
CC(C)(C)c1nc2cc(S(=O)(=O)c3ccnc(/C=C\Cl)c3)ccc2n1CC1CCOCC1 [Co. No. 124],< 5.00,>692,14.5 nM,
"CC(C)(C)c1nc2cc(S(=O)(=O)c3ccoc3)ccc2n1CC1CCOCC1 [Co. No. D, reference compound]",,,,ratio CB2 over CB1 agonism [2]: 26
COc1cc(S(=O)(=O)c2ccc3c(c2)nc(C(C)(C)C)n3CC2CCC(F)(F)CC2)ccn1 [Co. No. 122],7.00,102,0.977 nM,
CC(C)(C)c1nc2cc(S(=O)(=O)c3ccnc(C#N)c3)ccc2n1CC1CCOCC1 [Co. No. 93],< 5.00,,,pEC50 [2]: 8.83; ratio CB2 agonism over CB1 agonism ([2]; listed as 93): >6761
CC(C)(C)c1nc2cc(S(=O)(=O)c3ccc(C(=O)N4CCCC4)o3)ccc2n1CC1CCOCC1 [Co. No. 74],5.68,668,3.16 nM,
CC(=O)NCCCCc1cc(S(=O)(=O)c2ccc3c(c2)nc(C(C)(C)C)n3CC2CCOCC2)ccn1 [Co. No. 141],< 5.00,>1792,5.62 nM,
CC(C)(C)c1nc2cc(S(=O)(=O)c3ccc(C(=O)O)cn3)ccc2n1CC1CCCCC1 [Co. No. 46],5.41,3758,1.05 nM,
CC(C)(C)c1nc2cc(S(=O)(=O)c3ccc(CN)nc3)ccc2n1CC1CCOCC1 [Co. No. 116],5.24,966,5.89 nM,
CC(C)(C)c1nc2cc(S(=O)(=O)c3ncc(C(F)(F)F)cc3Cl)ccc2n1CC1CCOCC1 [Co. No. 61],6.82,135,1.12 nM,
"CC(C)(C)Cc1nc2cc(S(=O)(=O)c3ccncc3)ccc2n1CC1CCOCC1 [Co. No. E, reference compound]",,,,ratio CB2 over CB1 agonism [2]: 219
"CC(C)(C)c1nc2cc(S(=O)(=O)c3cccnc3)ccc2n1CC1CCOCC1 [Co. No. B, reference compound]",,,,ratio CB2 over CB1 agonism [2]: 30
"CC(C)(C)c1nc2cc(S(=O)(=O)c3ccncc3)ccc2n1CC1CCOCC1 [Co. No. A, reference compound]",,,,ratio CB2 over CB1 agonism [2]: 215
